Results as given in patent US20250275949A1, “USE OF DITERPENE COMPOUND DERIVATIVE OR SALT THEREOF IN PREPARATION OF MEDICINE FOR PREVENTING AND TREATING ATOPIC DERMATITIS” (SUZHOU PHARMAVAN CO., LTD, priority 2022, published 2025).

Key:
Type in all cases: in vivo, BALB/c mice
OXA-induced AD model [1] = assay: OXA-induced AD mouse model, Example 2 (Compound 1 cream; lesion score, ear thickness, immunohistochemistry, Western Blot); conditions: for right ear thickness on day 24 / skin lesion score on day 24: 50 μL per ear once a day, day 7 to day 23; for right ear thickness on day 24 / skin lesion score on day 24 / ICAM-1 positive rate, immunohistochemistry / Ki67 positive rate, immunohistochemistry / VCAM-1 positive rate, immunohistochemistry: vs vehicle group
Excerpt: Experimental animals involved in the following embodiments were SPF-grade BALB/c mice (≥7 weeks old, female). The scoring criteria for skin lesions involved in the following embodiments are shown in Table 1 and the histopathological scoring criteria are shown in Table 2. [table] The day of grouping was defined as day 0. Mice were randomly divided into 5 groups: blank control (NC) group, model (OXA) group, blank cream (vehicle) group, 0.1%-Compound 1 cream group, and 0.5%-Compound 1 cream group; the NC group had 5 animals, the other groups each had 10 animals. Each group except NC group was treated for modeling AD. Day 0:0.8%-OXA solution was applied to the auricle of both ears at 20 μL per ear. Day 7, 10, 12, 14, 17, 19, 21, and 23:0.4%-OXA solution was applied to the auricle of both ears at 20 μL per ear. Each group except NC group and OXA group was administrated. The administration started from day 7 to day 23, and the mice was administrated once a day at the auricle of both ears by 50 μL per ear (100 μL per mouse). The condition of the animals was observed during the experimental period, and the auricle was scored for skin lesions (see Table 1 for skin lesion scoring criteria), and the thickness of the ears was measured. The mice were euthanized, and their ear tissues were retained for immunohistochemistry and Western Blot analysis. [table]

MC903-induced AD model [2] = assay: MC903-induced AD mouse model, itching symptoms (scratching times), Example 4; conditions: cream 0.1% and 0.5%, right auricle, day 3 to day 10; video on the day before the experiment ended
Excerpt: Experimental animals involved in the following embodiments were SPF-grade BALB/c mice (≥7 weeks old, female). This example explores the preventive and therapeutic effect of a small-molecule diterpene derivative to itching symptoms on the MC903-induced AD model, including the following: • The day of grouping was defined as day 0. Mice were randomly divided into 5 groups: blank control (NC) group, model (MC903) group, blank cream (vehicle) group, 0.1%-Compound 1 cream group, and 0.5%-Compound 1 cream group; each group had 10 animals. Each group except NC group was treated for modeling AD. From day 0 to day 10:0.1 nmol/μL-MC903solution was applied to the auricle of right ear at 20 μL once a day. Each group except NC group and MC903 group was administrated. The administration started from day 3 to day 10, and the mice was administrated once a day at the auricle of right ear by 50 μL. The administration method for modeling and the design of subject dosage are same as Example 3. On the day before the experiment ended, the mice were videoed, and the mice of AD model were evaluated through the video about their scratching times in 15 min.

OXA-induced AD model [3] = assay: OXA-induced AD mouse model, Example 1 (eight compounds in castor oil); conditions: 0.1% in castor oil, day 7 to day 23; for OXA-induced AD-like lesions (conclusion of Example 1): auricle
Excerpt: Experimental animals involved in the following embodiments were SPF-grade BALB/c mice (≥7 weeks old, female). The scoring criteria for skin lesions involved in the following embodiments are shown in Table 1 and the histopathological scoring criteria are shown in Table 2. [table] The day of grouping was defined as day 0. Mice were randomly divided into 11 groups: blank control (NC) group, model (OXA) group, blank castor oil (vehicle) group, Compound 1 administration group, Compound 2 administration group, Compound 3 administration group, Compound 4 administration group, Compound 5 administration group, Compound 6 administration group, Compound 7 administration group, and Compound 8 administration 10 group, with 5 animals in each group. Each group except NC group was treated for modeling AD. Day 0:0.8%-OXA solution was applied to the auricle of both ears at 20 μL per ear. Day 7, 10, 12, 14, 17, 19, 21, and 23:0.4%-OXA solution was applied to the auricle of both ears at 20 μL per ear. Each group except NC group and OXA group was administrated. The administration started from day 7 to day 23, and the mice was administrated once a day at the auricle of both ears by 50 μL per ear (100 μL per mouse). The condition of the animals was observed during the experimental period, and the auricle was scored for skin lesions (see Table 1 for skin lesion scoring criteria), and the thickness of the ears was measured. [table]

MC903-induced AD model [4] = assay: MC903-induced AD mouse model, Example 3 (ear swelling, skin thickness, mast cells, histopathology, serum IgE ELISA)
Excerpt: Experimental animals involved in the following embodiments were SPF-grade BALB/c mice (≥7 weeks old, female). The scoring criteria for skin lesions involved in the following embodiments are shown in Table 1 and the histopathological scoring criteria are shown in Table 2. [table] This example explores the preventive and therapeutic effect of a small-molecule diterpene derivative on the MC903-induced AD model, including the following: • The day of grouping was defined as day 0. Mice were randomly divided into 5 groups: blank control (NC) group, model (MC903) group, blank cream (vehicle) group, 0.1%-Compound 1 cream group, and 0.5%-Compound 1 cream group; each group had 10 animals. Each group except NC group was treated for modeling AD. From day 0 to day 10:0.1 nmol/μL-MC903 solution was applied to the auricle of right ear at 20 μL once a day. Each group except NC group and MC903 group was administrated. The administration started from day 3 to day 10, and the mice was administrated once a day at the auricle of right ear by 50 μL. The condition of the animals was observed during the experimental period. The mice were euthanized, and their ear tissues were retained for the degree of ear swelling measurement, skin thickness measurement, mast cell counting and immunohistochemical analysis, and their blood tissues were retained for ELISA. [table]

[5] = cream, 0.1% and 0.5% groups together
[6] = cream, 0.1% and 0.5%, ear tissue
[7] = 50 μL per ear on auricle once a day, compared with vehicle group
[8] = cream 0.1% and 0.5%, right auricle, day 3 to day 10

C=C1C(=O)[C@@]23[C@H](O)C[C@@H]4C(C)(C)c5nc(N(C)C)sc5C[C@@]4(C)[C@@H]2CC[C@@H]1[C@H]3O [Compound 1]
right ear thickness on day 24 (OXA-induced AD model [1]; 0.1% cream): statistically different from the vehicle group
skin lesion score on day 24 (OXA-induced AD model [1]; 0.1% cream): statistically different from the vehicle group
ICAM-1 positive rate, immunohistochemistry (OXA-induced AD model [1]; 0.1% cream, ear tissue): reduced
Ki67 positive rate, immunohistochemistry (OXA-induced AD model [1]; 0.1% cream, ear tissue): reduced (statistically different)
VCAM-1 positive rate, immunohistochemistry (OXA-induced AD model [1]; 0.1% cream, ear tissue): reduced
right ear thickness on day 24 (OXA-induced AD model [1]; 0.5% cream): statistically different from the vehicle group
skin lesion score on day 24 (OXA-induced AD model [1]; 0.5% cream): statistically different from the vehicle group
ICAM-1 positive rate, immunohistochemistry (OXA-induced AD model [1]; 0.5% cream, ear tissue): reduced
Ki67 positive rate, immunohistochemistry (OXA-induced AD model [1]; 0.5% cream, ear tissue): reduced (statistically different)
VCAM-1 positive rate, immunohistochemistry (OXA-induced AD model [1]; 0.5% cream, ear tissue): reduced
OXA-induced AD-like lesions (conclusion of Example 2) (OXA-induced AD model [1]; cream, 0.1% and 0.5%): significantly ameliorate the OXA-induced AD-like lesions
ear thickness (conclusion) (OXA-induced AD model [1]; [5]): effectively ameliorate the ear thickness
epidermal overproliferation (Ki67) and aberrant expression of adhesion factor (ICAM-1, VCAM-1), conclusion (OXA-induced AD model [1]; [5]): effectively inhibit the epidermal overproliferation and aberrant expression of adhesion factor
skin lesion score (conclusion) (OXA-induced AD model [1]; [5]): effectively reduce the skin lesion score
ICAM-1 protein expression (gray value), Western Blot (OXA-induced AD model [1]; [6]): consistent with the immunohistochemical results
VCAM-1 protein expression (gray value), Western Blot (OXA-induced AD model [1]; [6]): consistent with the immunohistochemical results
scratching times in 15 min (extent of itching) (MC903-induced AD model [2]): effectively ameliorates the extent of itching
skin lesion score on day 24 (OXA-induced AD model [3]; [7]): effectively reduce the skin lesion score
OXA-induced AD-like lesions (conclusion of Example 1) (OXA-induced AD model [3]): significantly ameliorate the OXA-induced AD-like lesions
degree of ear swelling (MC903-induced AD model [4]; cream 0.1% and 0.5%, 50 μL on right auricle once a day, day 3 to day 10): effectively ameliorate the ear swelling
dermal thickness (ear histological scanning) (MC903-induced AD model [4]; [8]): effectively ameliorate the thickening of epidermis and dermis
epidermal thickness (ear histological scanning) (MC903-induced AD model [4]; [8]): effectively ameliorate the thickening of epidermis and dermis
histopathology scores (total, parakeratosis, epidermal defect, dermal papilla thickening, capillary proliferation, inflammatory infiltration), HE staining (MC903-induced AD model [4]; [8]): effectively ameliorates the extent of MC903-induced AD-like lesions
mast cell counting (toluidine blue staining of ear tissue sections) (MC903-induced AD model [4]; [8]): significantly reduces the number of mast cells
serum IgE concentration (ELISA) (MC903-induced AD model [4]; [8]): inhibits the serum IgE concentration
MC903-induced AD-like lesions (conclusion of Example 3) (MC903-induced AD model [4]; cream, 0.1% and 0.5%): significantly ameliorate the MC903-induced AD-like lesions

C=C1C(=O)[C@@]23[C@H](O)C[C@@H]4C(C)(C)c5nc(N)sc5C[C@@]4(C)[C@@H]2CC[C@@H]1[C@H]3O [Compound 2]
skin lesion score on day 24 (OXA-induced AD model [3]; [7]): do not exert a significant anti-atopic dermatitis effect

C=C1C(=O)[C@@]23[C@H](O)C[C@@H]4C(C)(C)c5nc(NC)sc5C[C@@]4(C)[C@@H]2CC[C@@H]1[C@H]3O [Compound 3]
skin lesion score on day 24 (OXA-induced AD model [3]; [7]): do not exert a significant anti-atopic dermatitis effect

C=C1C(=O)[C@@]23[C@H](O)C[C@@H]4C(C)(C)c5nc(NCC)sc5C[C@@]4(C)[C@@H]2CC[C@@H]1[C@H]3O [Compound 4]
skin lesion score on day 24 (OXA-induced AD model [3]; [7]): do not exert a significant anti-atopic dermatitis effect

C=C1C(=O)[C@@]23[C@H](O)C[C@@H]4C(C)(C)c5nc(N(CC)CC)sc5C[C@@]4(C)[C@@H]2CC[C@@H]1[C@H]3O [Compound 5]
skin lesion score on day 24 (OXA-induced AD model [3]; [7]): effectively reduce the skin lesion score
OXA-induced AD-like lesions (conclusion of Example 1) (OXA-induced AD model [3]): significantly ameliorate the OXA-induced AD-like lesions

C=C1C(=O)[C@@]23[C@H](O)C[C@@H]4C(C)(C)c5nc(N(CCC)CCC)sc5C[C@@]4(C)[C@@H]2CC[C@@H]1[C@H]3O [Compound 6]
skin lesion score on day 24 (OXA-induced AD model [3]; [7]): effectively reduce the skin lesion score
OXA-induced AD-like lesions (conclusion of Example 1) (OXA-induced AD model [3]): significantly ameliorate the OXA-induced AD-like lesions

C=C1C(=O)[C@@]23[C@H](O)C[C@@H]4C(C)(C)c5nc(N(C(C)C)C(C)C)sc5C[C@@]4(C)[C@@H]2CC[C@@H]1[C@H]3O [Compound 7]
skin lesion score on day 24 (OXA-induced AD model [3]; [7]): effectively reduce the skin lesion score
OXA-induced AD-like lesions (conclusion of Example 1) (OXA-induced AD model [3]): significantly ameliorate the OXA-induced AD-like lesions

C=C1C(=O)[C@@]23[C@H](O)C[C@@H]4C(C)(C)c5nc(Nc6ccncc6)sc5C[C@@]4(C)[C@@H]2CC[C@@H]1[C@H]3O [Compound 8]
right ear thickness on day 24 (OXA-induced AD model [3]; [7]): Vehicle group>Compound 8 group
skin lesion score on day 24 (OXA-induced AD model [3]; [7]): do not exert a significant anti-atopic dermatitis effect
